In patent publication US7465740B2, “2-heteroaryl-pyrazolo-[4,3-e]-1,2,4-triazolo-[1,5-c]-pyrimidine adenosine A2a receptor antagonists” (Schering Corporation, priority 2005, dated 2008):

Legend:
[1] = biological target: T1, Human A2a Adenosine Receptor (Homo sapiens, UniProt P29274); experiment: Human adenosine A2a receptor competition binding assay; conditions: [3H]-SCH 58261 displacement, human A2a membranes
T1 construct: purchased Receptor Biology, Inc., Beltsville, Md; RB-HA2a
Protocol: (§1) Human Adenosine A2a and A1 Receitor Competition Binding Assay Protocol Membrane Sources:
A2a: Human A2a Adenosine Receptor membranes, Catalog #RB-HA2a, Receptor Biology, Inc., Beltsville, Md. Dilute to 17 μg/100 μl in membrane dilution buffer (see below).
(§2) Membrane dilution buffer: Dulbecco's Phosphate Buffered Saline (Gibco/BRL)+10 mM MgCl2.
(§3) Compound Dilution Buffer: Dulbecco's Phosphate Buffered Saline (Gibco/BRL)+10 mM MgCl2 supplemented with 1.6 mg/ml methyl cellulose and 16% DMSO. Prepared fresh daily.
A2a: [3H]-SCH 58261, custom synthesis, AmershamPharmacia Biotech, Piscataway, N.J. Stock is prepared at 1 nM in membrane dilution buffer. Final assay concentration is 0.5 nM.
A2a: To determine non-specific binding, add 100 nM CGS 15923 (RBI, Natick, Mass.). Working stock is prepared at 400 nM in compound dilution buffer.
(§4) Prepare 1 mM stock solutions of compounds in 100% DMSO. Dilute in compound dilution buffer. Test at 10 concentrations ranging from 3 μM to 30 pM. Prepare working solutions at 4× final concentration in compound dilution buffer.
(§5) Perform assays in deep well 96 well plates. Total assay volume is 200 μl. Add 50 μl compound dilution buffer (total ligand binding) or 50 μl CGS 15923 working solution (A2a non-specific binding) or 50 μl NECA working solution (A1 non-specific binding) or 50 μl of drug working solution. Add 50 μl ligand stock ([3H]-SCH 58261 for A2a, [3H]-DPCPX for A1). […]

[2] = biological target: T2, A1 receptor (Homo sapiens, UniProt P30542); experiment: Human adenosine A1 receptor competition binding assay (for selectivity); conditions: A1/A2a Ki ratio
T2 sequence (P30542 1-326): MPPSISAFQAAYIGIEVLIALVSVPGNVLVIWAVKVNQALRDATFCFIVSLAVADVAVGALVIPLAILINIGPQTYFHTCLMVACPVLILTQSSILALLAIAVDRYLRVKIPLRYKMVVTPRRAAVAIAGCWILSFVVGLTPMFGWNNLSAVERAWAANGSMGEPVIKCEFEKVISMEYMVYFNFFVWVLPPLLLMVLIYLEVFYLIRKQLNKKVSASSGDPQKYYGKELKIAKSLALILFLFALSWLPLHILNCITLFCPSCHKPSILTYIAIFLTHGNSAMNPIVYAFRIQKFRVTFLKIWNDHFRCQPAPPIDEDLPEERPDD
Protocol: as §1, §2, §3
A1: [3H]-DPCPX, Amersham Pharmacia Biotech, Piscataway, N.J. Stock is prepared at 2 nM in membrane dilution buffer. Final assay concentration is 1 nM.
A1: To determine non-specific binding, add 100 μM NECA (RBI, Natick, Mass.). Working stock is prepared at 400 μM in compound dilution buffer.
as §4
as §5, with “A1). Add 100 μl of diluted membranes containing the appropriate receptor. Mix. Incubate at room temperature for 90 minutes.” for “A1).”
Selectivity is determined by dividing Ki for A1 receptor by Ki for A2a receptor. […]

T1 sequence (P29274 whole entry): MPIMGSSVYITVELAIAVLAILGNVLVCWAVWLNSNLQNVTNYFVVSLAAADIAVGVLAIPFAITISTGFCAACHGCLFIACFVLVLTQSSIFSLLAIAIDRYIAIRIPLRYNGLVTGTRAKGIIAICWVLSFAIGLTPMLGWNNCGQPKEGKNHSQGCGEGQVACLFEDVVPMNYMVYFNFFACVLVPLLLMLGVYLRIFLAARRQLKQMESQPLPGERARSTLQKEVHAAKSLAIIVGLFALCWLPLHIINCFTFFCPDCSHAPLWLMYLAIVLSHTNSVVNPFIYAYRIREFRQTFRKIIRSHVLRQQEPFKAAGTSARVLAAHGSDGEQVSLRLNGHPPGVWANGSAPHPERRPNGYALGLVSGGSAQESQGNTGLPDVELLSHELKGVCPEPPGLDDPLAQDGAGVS

SMILES | Ki [1] [nM] | selectivity (Ki for A1 receptor divided by Ki for A2a receptor) [2]
Cc1nc(-c2ccc(F)c(N3CCN(CCn4ncc5c4nc(N)n4nc(-c6cnccn6)nc54)CC3)c2)co1 [Example 1] | 0.2 | –
Cc1nccnc1-c1nc2c3cnn(CCN4CCN(c5cc(-c6ncco6)ccc5F)CC4)c3nc(N)n2n1 [Example 2-28] | – | above 9000
